Here are results for 27 compounds from ChEMBL document CHEMBL4004823, “Discovery of Potent and Selective Inhibitors for G9a-Like Protein (GLP) Lysine Methyltransferase” (J Med Chem, 2017).

Assay [1] concerns the target T1, Histone-lysine N-methyltransferase EHMT1 (Homo sapiens, UniProt Q9H9B1).
T1 sequence (Q9H9B1 whole entry): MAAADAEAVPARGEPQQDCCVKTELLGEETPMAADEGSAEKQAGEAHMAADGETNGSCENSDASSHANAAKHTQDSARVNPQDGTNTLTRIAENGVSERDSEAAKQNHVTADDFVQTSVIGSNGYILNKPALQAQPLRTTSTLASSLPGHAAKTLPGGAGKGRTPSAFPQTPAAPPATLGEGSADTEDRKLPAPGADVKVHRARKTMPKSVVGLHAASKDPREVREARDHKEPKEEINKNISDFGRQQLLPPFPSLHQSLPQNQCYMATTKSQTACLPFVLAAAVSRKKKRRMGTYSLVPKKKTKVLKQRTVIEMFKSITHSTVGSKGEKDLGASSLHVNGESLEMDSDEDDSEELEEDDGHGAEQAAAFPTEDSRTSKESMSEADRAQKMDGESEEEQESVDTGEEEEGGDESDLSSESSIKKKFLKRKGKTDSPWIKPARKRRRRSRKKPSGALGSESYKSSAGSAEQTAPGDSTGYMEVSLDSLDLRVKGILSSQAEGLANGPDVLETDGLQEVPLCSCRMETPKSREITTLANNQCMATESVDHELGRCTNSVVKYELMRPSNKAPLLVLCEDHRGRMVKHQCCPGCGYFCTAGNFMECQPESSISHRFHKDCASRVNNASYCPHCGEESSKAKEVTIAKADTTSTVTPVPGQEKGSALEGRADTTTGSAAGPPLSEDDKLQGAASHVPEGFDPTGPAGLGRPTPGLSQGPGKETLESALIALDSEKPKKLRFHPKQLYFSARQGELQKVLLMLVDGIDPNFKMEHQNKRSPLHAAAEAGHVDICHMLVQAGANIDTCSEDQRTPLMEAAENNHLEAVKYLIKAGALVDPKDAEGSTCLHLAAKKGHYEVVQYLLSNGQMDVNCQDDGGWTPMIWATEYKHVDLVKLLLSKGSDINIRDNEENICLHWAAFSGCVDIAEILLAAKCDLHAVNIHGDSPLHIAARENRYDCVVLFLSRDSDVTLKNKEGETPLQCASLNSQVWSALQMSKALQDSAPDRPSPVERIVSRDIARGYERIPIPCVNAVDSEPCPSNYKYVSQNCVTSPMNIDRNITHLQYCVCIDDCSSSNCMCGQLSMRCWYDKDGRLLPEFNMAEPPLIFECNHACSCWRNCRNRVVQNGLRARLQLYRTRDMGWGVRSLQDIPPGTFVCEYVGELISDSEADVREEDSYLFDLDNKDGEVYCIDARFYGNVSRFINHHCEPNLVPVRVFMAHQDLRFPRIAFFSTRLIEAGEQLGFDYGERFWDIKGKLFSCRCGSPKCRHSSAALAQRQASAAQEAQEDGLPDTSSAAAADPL
As to the kind of experiment: Inhibition of recombinant GLP catalytic SET domain (982 to 1266 residues) (unknown origin) expressed in Escherichia coli BL21 (DE3) codon plus RIL assessed as inhibition of methylation activity using biotin-labeled H3 (1 to 25 residues) as substrate and [3H]-SAM after 2 hrs by scintillation proximity assay. For orientation: In a scintillation proximity assay essentially only radioactivity close to the scintillant gives light.

In assay [2] the target is T2, Histone-lysine N-methyltransferase EHMT2 (Homo sapiens, UniProt Q96KQ7).
T2 sequence (Q96KQ7 whole entry): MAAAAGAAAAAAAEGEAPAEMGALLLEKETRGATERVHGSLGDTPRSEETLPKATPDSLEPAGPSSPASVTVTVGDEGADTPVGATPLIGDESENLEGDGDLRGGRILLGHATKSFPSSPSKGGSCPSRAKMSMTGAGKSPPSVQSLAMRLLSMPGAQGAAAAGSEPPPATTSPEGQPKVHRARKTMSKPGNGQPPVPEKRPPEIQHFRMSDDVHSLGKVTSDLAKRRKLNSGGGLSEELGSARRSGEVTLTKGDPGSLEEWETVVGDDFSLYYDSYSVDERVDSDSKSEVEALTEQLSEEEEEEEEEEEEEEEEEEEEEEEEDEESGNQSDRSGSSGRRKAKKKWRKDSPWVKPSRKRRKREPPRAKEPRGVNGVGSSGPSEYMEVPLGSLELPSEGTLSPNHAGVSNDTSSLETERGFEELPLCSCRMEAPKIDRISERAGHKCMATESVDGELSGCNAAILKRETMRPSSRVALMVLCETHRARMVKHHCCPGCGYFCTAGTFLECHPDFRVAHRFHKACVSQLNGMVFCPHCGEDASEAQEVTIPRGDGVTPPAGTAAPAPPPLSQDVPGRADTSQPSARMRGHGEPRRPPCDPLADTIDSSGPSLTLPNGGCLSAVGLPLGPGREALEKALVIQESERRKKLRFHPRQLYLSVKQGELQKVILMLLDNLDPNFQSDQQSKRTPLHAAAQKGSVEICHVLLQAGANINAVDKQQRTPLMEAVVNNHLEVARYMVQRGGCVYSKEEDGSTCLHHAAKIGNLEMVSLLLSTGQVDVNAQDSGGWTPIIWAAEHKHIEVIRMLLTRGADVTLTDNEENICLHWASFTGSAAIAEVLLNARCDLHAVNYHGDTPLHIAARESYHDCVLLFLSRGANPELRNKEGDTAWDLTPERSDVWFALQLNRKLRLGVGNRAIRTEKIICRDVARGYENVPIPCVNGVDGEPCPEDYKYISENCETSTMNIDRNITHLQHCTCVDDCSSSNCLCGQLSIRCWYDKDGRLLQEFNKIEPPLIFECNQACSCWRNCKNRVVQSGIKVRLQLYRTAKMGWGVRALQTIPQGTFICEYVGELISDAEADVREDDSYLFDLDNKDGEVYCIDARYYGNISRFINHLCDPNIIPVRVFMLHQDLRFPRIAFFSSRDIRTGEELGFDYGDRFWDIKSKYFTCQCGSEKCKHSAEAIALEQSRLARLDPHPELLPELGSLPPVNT
The assay can be described thus: Inhibition of recombinant G9a catalytic SET domain (913 to 1193 residues) (unknown origin) expressed in Escherichia coli BL21 (DE3) codon plus RIL assessed as inhibition of methylation activity using biotin-labeled H3 (1 to 25 residues) as substrate and [3H]-SAM after 2 hrs by scintillation proximity assay.

Assay [3] deals with T1, Histone-lysine N-methyltransferase EHMT1. As to the kind of experiment: Binding affinity to recombinant GLP catalytic SET domain (982 to 1266 residues) (unknown origin) expressed in Escherichia coli BL21 (DE3) codon plus RIL in presence of SAM by isothermal titration calorimetry.
Assay [4] concerns the target T2, Histone-lysine N-methyltransferase EHMT2. The assay can be described thus: Binding affinity to recombinant G9a catalytic SET domain (913 to 1193 residues) (unknown origin) expressed in Escherichia coli BL21 (DE3) codon plus RIL in presence of SAM by isothermal titration calorimetry. In general terms: Isothermal titration calorimetry measures the heat released or taken up as one component is titrated into another.

pIC50, pKd: −log10 of the molar value. A value given as a limit tells only on which side of the number the result lay.

Usually pIC50 stands for the negative decadic logarithm of the IC50, by convention in mol/L. As to `COc1cc2nc(N3CCOCC3)nc(NC3CCN(C)CC3)c2cc1C`, the negative-log IC50 (pIC50) is 6.09 in assay [1] and 5.39 in assay [2].

As for `COc1cc2nc(N3CCCC3)nc(NC3CCN(C)CC3)c2cc1OC`, the pIC50 in assay [1] is 7.92; in assay [2] it was 6.50.

In the case of `CCN1CCC(Nc2nc(N3CCOCC3)nc3cc(OC)c(OC)cc23)CC1`, the values for the negative logarithm of the IC50 (pIC50) in assay [1] and in assay [2] were 7.59 and 6.49, respectively.

As for `CCCCCCCNc1nc(NC2CCN(C)CC2)c2cc(OC)c(OC)cc2n1`, the pIC50 is 7.36 in assay [1] and 6.12 in assay [2].

As to `COc1cc2nc(C3CCCCC3)nc(NC3CCN(C)CC3)c2cc1OC`, the results for the pIC50 in assay [1] and in assay [2] were 7.47 and 6.36, respectively.

Turning to `CCOc1cc2c(NC3CCN(C)CC3)nc(N3CCOCC3)nc2cc1OC`, the negative logarithm of the IC50 (pIC50) in assay [1] and in assay [2] was less than 5.30 in each case.

As to `COc1cc2c(NC3CCN(C)CC3)nc(N3CCOCC3)nc2cc1F`, the pIC50 in assay [1] and in assay [2] was less than 5.30 in each case.

For the compound `COc1cc2nc(N3CCOCC3)nc(NC3CCN(C(C)C)CC3)c2cc1OC`, the pIC50 in assay [1] is 7.82; in assay [2] it was 6.58.

Turning to `CCCCNc1nc(NC2CCN(C)CC2)c2cc(OC)c(OC)cc2n1`, the pIC50 is 7.46 in assay [1] and 6.36 in assay [2].

As to `COc1cc2nc(N3CCC(F)(F)CC3)nc(NC3CCN(C)CC3)c2cc1OC`, the negative-log IC50 (pIC50) is 7.01 in assay [1] and 5.97 in assay [2].

With `CCCCCCN(C)c1nc(NC2CCN(C)CC2)c2cc(OC)c(OC)cc2n1`, the pIC50 is 7.74 in assay [1] and 6.51 in assay [2].

Consider `CCOc1cc2nc(N3CCOCC3)nc(NC3CCN(C)CC3)c2cc1OC`, for which the values for the pIC50 in assay [1] and in assay [2] were less than 6.00 and less than 5.30, respectively.

In the case of `CCCN1CCC(Nc2nc(N3CCOCC3)nc3cc(OC)c(OC)cc23)CC1`, the pIC50 in assay [1] is 7.96; in assay [2], 6.65.

The pKd is the negative decadic logarithm of the Kd, by convention in mol/L. For `CCCCCCNc1nc(NC2CCN(C)CC2)c2cc(OC)c(OC)cc2n1`, the results for the pIC50 in assay [1] and in assay [2] were 8.15 and 6.00, respectively. For the same compound, the negative logarithm of the Kd (pKd) was 7.34 in assay [3] and 6.21 in assay [4].

As for `COc1cc2nc(N3CCOCC3)nc(NC3CCN(C)CC3)c2cc1OC(C)C`, the pIC50 in assay [1] and in assay [2] was less than 5.30 each time.

Turning to `COc1cc2nc(N3CCOCC3)nc(NC3CCN(C)CC3)c2cc1F`, the pIC50 in assay [1] is 5.91; in assay [2], 5.43.

On to `COc1cc2c(NC3CCN(C)CC3)nc(N3CCOCC3)nc2cc1C`, for which the negative-log IC50 (pIC50) was 7.54 in assay [1] and 5.94 in assay [2].

As to `COc1cc2nc(N3CCOCC3)nc(NC3CCN(C4CC4)CC3)c2cc1OC`, the negative logarithm of the IC50 (pIC50) in assay [1] is 7.92; in assay [2], 6.50.

Consider `CCCCN(C)c1nc(NC2CCN(C)CC2)c2cc(OC)c(OC)cc2n1`, for which the results for the negative logarithm of the IC50 (pIC50) in assay [1] and in assay [2] were 7.46 and 6.39, respectively.

In the case of `COc1cc2nc(C3CCOCC3)nc(NC3CCN(C)CC3)c2cc1OC`, the pIC50 was 6.47 in assay [1] and 5.72 in assay [2].

As to `COc1cc2nc(N3CCCCCC3)nc(NC3CCN(C)CC3)c2cc1OC`, the negative logarithm of the IC50 (pIC50) is 7.80 in assay [1] and 6.72 in assay [2].

As to `CCCCCN(C)c1nc(NC2CCN(C)CC2)c2cc(OC)c(OC)cc2n1`, the pIC50 in assay [1] was 7.55; in assay [2], 6.51.

Turning to `COc1cc2c(NC3CCN(C)CC3)nc(N3CCOCC3)nc2cc1OC(C)C`, the pIC50 in assay [1] and in assay [2] was less than 5.30 each time.

Consider `CCCCCNc1nc(NC2CCN(C)CC2)c2cc(OC)c(OC)cc2n1`, for which the pIC50 in assay [1] was 7.20; in assay [2] it was 6.47.

As to `COc1cc2nc(N3CCCCC3)nc(NC3CCN(C)CC3)c2cc1OC`, the negative logarithm of the IC50 (pIC50) is 7.92 in assay [1] and 7.51 in assay [2].

As for `COc1cc2nc(N3CCOCC3)nc(NC3CCN(C)CC3)c2cc1OC`, the values for the negative-log IC50 (pIC50) in assay [1] and in assay [2] were 7.89 and 6.36, respectively. For the same compound, the pKd in assay [3] is 7.40; in assay [4] it was 6.35.

For `COc1cc2nc(N3CCCN(C)CC3)nc(NC3CCN(C)CC3)c2cc1OC`, in assay [1], the negative logarithm of the IC50 (pIC50) was 8.40.
